Experiments:
Viscosity of the solvent = format: physicochemical; conditions: 100° F; Table 2
Color of the solvent = format: physicochemical; conditions: Table 2, solvent
[1] = background; cited from earlier work
[2] = Acute toxicity (LD50, per oral and cutaneous); format: in vivo, Strain ICR-JCL Mice; conditions: ICR-JCL mice
From the text: Used as test animal are Strain ICR-JCL Mice (Nippon Clea Co., Ltd.)

Compound: methylbutylnaphthalene [Methyl Butyl]
- Viscosity (Viscosity of the solvent): 5.0 cst
- Color (Color of the solvent): None

Compound: Clc1ccc(C(c2ccc(Cl)cc2)C(Cl)(Cl)Cl)cc1 [DDT]
- accumulation in the bodies of many animals [1]: accumulates

Compound: dipropylnaphthalene
- LD50 Cutaneous [2]: ≥ 30 mL/kg
- LD50 Per Oral [2]: 9.5 mL/kg
- Viscosity (Viscosity of the solvent): 8.5 cst
- Color (Color of the solvent): None

Compound: methylpropylnaphthalene [Methyl propyl]
- Viscosity (Viscosity of the solvent): 4.0 cst
- Color (Color of the solvent): None

Compound: butylnaphthalene [Butyl-naphthalene]
- Viscosity (Viscosity of the solvent): 4.2 cst
- Color (Color of the solvent): None

Compound: ethylpropylnaphthalene [Ethyl propyl]
- Viscosity (Viscosity of the solvent): 5.2 cst
- Color (Color of the solvent): None

Compound: ClC1C(Cl)C(Cl)C(Cl)C(Cl)C1Cl (centres unmarked) [BHC]
- accumulation in the bodies of many animals [1]: accumulates

Compound: diethylnaphthalene [Diethyl-]
- Viscosity (Viscosity of the solvent): 3.6 cst
- Color (Color of the solvent): None

Compound: polychlorobiphenyl [PCB, reference compound]
- LD50 Cutaneous [2]: 1.25 mL/kg
- LD50 Per Oral [2]: 1.7 mL/kg
- Color (Color of the solvent): None
- accumulation in the bodies of many animals [1]: accumulates
- biodegradability [1]: low biodegradability

Compound: dimethylpropylnaphthalene [Dimethyl propyl]
- Viscosity (Viscosity of the solvent): 5.1 cst
- Color (Color of the solvent): None

Reference: patent publication US4003589A, “Carbonless copying paper” (Kureha Kagaku Kogyo Kabushiki Kaisha, priority 1970, dated 1977)
